# According to PubChem BioAssay AID272 (DTP/NCI, 2004):
# Several values for one entry are separate records, joined by “and”; a condition that tells them apart may be missing. Equal values may be shown once. Inconclusive results are not listed. Residues, ends and D or L forms follow the SMILES beside them. *: point of attachment. Trt = c1ccc(C(c2ccccc2)(c2ccccc2)*)cc1; Bn = c1ccc(C*)cc1
# System: Lewis lung carcinoma i.m., BDF1 mice, T/C %
# Assay: NCI In Vivo Anticancer Drug Screen. Data for tumor model Lewis Lung Carcinoma (intramuscular) in B6D2F1 (BDF1) mice
# How it was run: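 Compound given to mice with transplantable tumours; survival or tumour size compared against the vehicle control group, reported as T divided by C.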
# [1] = endpoint: mean tumor weight, dose: 25.0 mg/kg/injection, schedule: Q01DX011 (ip), vehicle: Klucel (hydroxypropylcellulose) (HPC), higher = larger tumour
# [2] = endpoint: mean tumor weight, dose: 50.0 mg/kg/injection, schedule: Q01DX011 (ip), vehicle: Klucel (hydroxypropylcellulose) (HPC), higher = larger tumour
# [3] = endpoint: mean tumor weight, dose: 100.0 mg/kg/injection, schedule: Q01DX011 (ip), vehicle: Klucel (hydroxypropylcellulose) (HPC), higher = larger tumour
# [4] = endpoint: median survival time, dose: 25.0 mg/kg/injection, schedule: Q01DX011 (ip), vehicle: Klucel (hydroxypropylcellulose) (HPC), higher = longer survival
# [5] = endpoint: median survival time, dose: 50.0 mg/kg/injection, schedule: Q01DX011 (ip), vehicle: Klucel (hydroxypropylcellulose) (HPC), higher = longer survival
smiles,measurement,setting,value
O=c1[nH]cc(F)c(=O)[nH]1,T/C,"endpoint: mean tumor weight (est.), dose: 10.0 mg/kg/injection, schedule: Q01DX011 (ip), vehicle: saline with Tween-80, higher = larger tumour",37 % of control
same,T/C,"endpoint: mean tumor weight (est.), dose: 20.0 mg/kg/injection, schedule: Q01DX011 (ip), vehicle: saline with Tween-80, higher = larger tumour",9 % of control
same,T/C,"endpoint: mean tumor weight, dose: 5.0 mg/kg/injection, schedule: Q01DX011 (ip), vehicle: other, higher = larger tumour",93 % of control
same,T/C,"endpoint: mean tumor weight, dose: 5.0 mg/kg/injection, schedule: Q01DX011 (ip), vehicle: saline, higher = larger tumour",71 % of control
same,T/C,"endpoint: mean tumor weight, dose: 10.0 mg/kg/injection, schedule: Q01DX011 (ip), vehicle: other, higher = larger tumour",46 % of control
same,T/C,"endpoint: mean tumor weight, dose: 10.0 mg/kg/injection, schedule: Q01DX011 (ip), vehicle: saline, higher = larger tumour",51 % of control and 57 % of control
same,T/C,"endpoint: mean tumor weight, dose: 20.0 mg/kg/injection, schedule: Q01DX011 (ip), vehicle: other, higher = larger tumour",18 % of control
same,T/C,"endpoint: mean tumor weight, dose: 20.0 mg/kg/injection, schedule: Q01DX011 (ip), vehicle: saline, higher = larger tumour",5 % of control
same,T/C,"endpoint: median survival time, dose: 5.0 mg/kg/injection, schedule: Q01DX011 (ip), vehicle: other, higher = longer survival",100 % of control
same,T/C,"endpoint: median survival time, dose: 6.3 mg/kg/injection, schedule: Q04DX004 (ip), vehicle: saline, higher = longer survival",112 % of control
same,T/C,"endpoint: median survival time, dose: 10.0 mg/kg/injection, schedule: Q01DX009 (ip), vehicle: saline, higher = longer survival",112 % of control
same,T/C,"endpoint: median survival time, dose: 10.0 mg/kg/injection, schedule: Q01DX011 (ip), vehicle: other, higher = longer survival",96 % of control
same,T/C,"endpoint: median survival time, dose: 12.5 mg/kg/injection, schedule: Q04DX004 (ip), vehicle: saline, higher = longer survival",116 % of control
same,T/C,"endpoint: median survival time, dose: 20.0 mg/kg/injection, schedule: Q01DX009 (ip), vehicle: saline, higher = longer survival",119 % of control
same,T/C,"endpoint: median survival time, dose: 20.0 mg/kg/injection, schedule: Q01DX011 (ip), vehicle: other, higher = longer survival",122 % of control
same,T/C,"endpoint: median survival time, dose: 25.0 mg/kg/injection, schedule: Q04DX004 (ip), vehicle: saline, higher = longer survival",108 % of control
same,T/C,"endpoint: median survival time, dose: 50.0 mg/kg/injection, schedule: Q04DX004 (ip), vehicle: saline, higher = longer survival",89 % of control
N#C[C@@H]1C2C=CC(CC2)[C@H]1C#N,T/C,"endpoint: mean tumor weight (est.), dose: 0.15 mg/kg/injection, schedule: Q01DX011 (ip), vehicle: saline, higher = larger tumour",56 % of control
same,T/C,"endpoint: mean tumor weight (est.), dose: 0.3 mg/kg/injection, schedule: Q01DX011 (ip), vehicle: saline, higher = larger tumour",83 % of control
same,T/C,"endpoint: mean tumor weight (est.), dose: 0.6 mg/kg/injection, schedule: Q01DX011 (ip), vehicle: saline, higher = larger tumour",98 % of control
same,T/C,"endpoint: mean tumor weight (est.), dose: 1.2 mg/kg/injection, schedule: Q01DX011 (ip), vehicle: saline, higher = larger tumour",95 % of control
Cc1nc2ccccc2nc1CBr,T/C,"endpoint: mean tumor weight (est.), dose: 3.2 mg/kg/injection, schedule: Q01DX011 (ip), vehicle: saline with Tween-80, higher = larger tumour",64 % of control
same,T/C,"endpoint: mean tumor weight (est.), dose: 6.3 mg/kg/injection, schedule: Q01DX011 (ip), vehicle: saline with Tween-80, higher = larger tumour",80 % of control
same,T/C,"endpoint: mean tumor weight (est.), dose: 12.5 mg/kg/injection, schedule: Q01DX011 (ip), vehicle: saline with Tween-80, higher = larger tumour",56 % of control
same,T/C,"endpoint: median survival time, dose: 3.2 mg/kg/injection, schedule: Q01DX011 (ip), vehicle: saline with Tween-80, higher = longer survival",96 % of control
same,T/C,"endpoint: median survival time, dose: 6.3 mg/kg/injection, schedule: Q01DX011 (ip), vehicle: saline with Tween-80, higher = longer survival",101 % of control
same,T/C,"endpoint: median survival time, dose: 12.5 mg/kg/injection, schedule: Q01DX011 (ip), vehicle: saline with Tween-80, higher = longer survival",88 % of control
OC(CBr)C(O)C(O)C(O)CBr (stereo unspecified),T/C,"endpoint: mean tumor weight (est.), dose: 50.0 mg/kg/injection, schedule: Q01DX011 (ip), vehicle: Klucel (hydroxypropylcellulose) (HPC), higher = larger tumour",61 % of control
same,T/C,"endpoint: mean tumor weight (est.), dose: 100.0 mg/kg/injection, schedule: Q01DX011 (ip), vehicle: Klucel (hydroxypropylcellulose) (HPC), higher = larger tumour",59 % of control
same,T/C,"endpoint: mean tumor weight (est.), dose: 200.0 mg/kg/injection, schedule: Q01DX011 (ip), vehicle: Klucel (hydroxypropylcellulose) (HPC), higher = larger tumour",44 % of control
same,T/C,[1],85 % of control
same,T/C,[2],70 % of control
same,T/C,[3],93 % of control
same,T/C,"endpoint: mean tumor weight, dose: 125.0 mg/kg/injection, schedule: Q01DX011 (ip), vehicle: Klucel (hydroxypropylcellulose) (HPC), higher = larger tumour",101 % of control
same,T/C,"endpoint: mean tumor weight, dose: 200.0 mg/kg/injection, schedule: Q01DX011 (ip), vehicle: Klucel (hydroxypropylcellulose) (HPC), higher = larger tumour",72 % of control
same,T/C,"endpoint: mean tumor weight, dose: 250.0 mg/kg/injection, schedule: Q01DX011 (ip), vehicle: Klucel (hydroxypropylcellulose) (HPC), higher = larger tumour",100 % of control
same,T/C,"endpoint: mean tumor weight, dose: 400.0 mg/kg/injection, schedule: Q01DX011 (ip), vehicle: Klucel (hydroxypropylcellulose) (HPC), higher = larger tumour",55 % of control
same,T/C,[4],94 % of control
same,T/C,[5],111 % of control
same,T/C,"endpoint: median survival time, dose: 125.0 mg/kg/injection, schedule: Q01DX011 (ip), vehicle: Klucel (hydroxypropylcellulose) (HPC), higher = longer survival",93 % of control
same,T/C,"endpoint: median survival time, dose: 200.0 mg/kg/injection, schedule: Q01DX011 (ip), vehicle: Klucel (hydroxypropylcellulose) (HPC), higher = longer survival",97 % of control and 112 % of control
same,T/C,"endpoint: median survival time, dose: 250.0 mg/kg/injection, schedule: Q01DX011 (ip), vehicle: Klucel (hydroxypropylcellulose) (HPC), higher = longer survival",100 % of control
same,T/C,"endpoint: median survival time, dose: 400.0 mg/kg/injection, schedule: Q01DX011 (ip), vehicle: Klucel (hydroxypropylcellulose) (HPC), higher = longer survival",94 % of control
O=C(Nc1ccc(C2=NCCN2)cc1)c1ccc(C(=O)Nc2ccc(C3=NCCN3)cc2)c(Cl)c1,T/C,"endpoint: median survival time, dose: 4.0 mg/kg/injection, schedule: Q01DX011 (ip), vehicle: water, higher = longer survival",90 % of control
COC(=O)C(CSC(c1ccccc1)(c1ccccc1)c1ccccc1)NC(=O)C(CSCc1ccccc1)NC(C)=O (stereo unspecified) (Ac-Cys(Bn)-Cys(Trt)-OMe; configuration not given here),T/C,"endpoint: median survival time, dose: 8.0 mg/kg/injection, schedule: Q01DX009 (ip), vehicle: Klucel (hydroxypropylcellulose) (HPC), higher = longer survival",165 % of control
same,T/C,"endpoint: median survival time, dose: 32.0 mg/kg/injection, schedule: Q01DX009 (ip), vehicle: Klucel (hydroxypropylcellulose) (HPC), higher = longer survival",121 % of control
same,T/C,"endpoint: median survival time, dose: 64.0 mg/kg/injection, schedule: Q01DX009 (ip), vehicle: Klucel (hydroxypropylcellulose) (HPC), higher = longer survival",121 % of control
O=C1CN=C(c2ccc[nH]2)c2cc(Cl)ccc2N1,T/C,"endpoint: mean tumor weight, dose: 6.25 mg/kg/injection, schedule: Q01DX011 (ip), vehicle: Klucel (hydroxypropylcellulose) (HPC), higher = larger tumour",74 % of control
same,T/C,"endpoint: mean tumor weight, dose: 12.5 mg/kg/injection, schedule: Q01DX011 (ip), vehicle: Klucel (hydroxypropylcellulose) (HPC), higher = larger tumour",111 % of control
same,T/C,[1],82 % of control
same,T/C,[2],96 % of control
same,T/C,[3],95 % of control
same,T/C,"endpoint: median survival time, dose: 6.25 mg/kg/injection, schedule: Q01DX011 (ip), vehicle: Klucel (hydroxypropylcellulose) (HPC), higher = longer survival",97 % of control
same,T/C,"endpoint: median survival time, dose: 12.5 mg/kg/injection, schedule: Q01DX011 (ip), vehicle: Klucel (hydroxypropylcellulose) (HPC), higher = longer survival",100 % of control
same,T/C,[4],88 % of control and 111 % of control
same,T/C,[5],102 % of control
same,T/C,"endpoint: median survival time, dose: 100.0 mg/kg/injection, schedule: Q01DX011 (ip), vehicle: Klucel (hydroxypropylcellulose) (HPC), higher = longer survival",100 % of control
O=C(O)c1[nH]c(=O)[nH]c(=O)c1F,T/C,"endpoint: median survival time, dose: 0.19 mg/kg/injection, schedule: Q01DX011 (ip), vehicle: sodium bicarbonate, higher = longer survival",100 % of control
same,T/C,"endpoint: median survival time, dose: 0.38 mg/kg/injection, schedule: Q01DX011 (ip), vehicle: sodium bicarbonate, higher = longer survival",111 % of control
same,T/C,"endpoint: median survival time, dose: 0.75 mg/kg/injection, schedule: Q01DX011 (ip), vehicle: sodium bicarbonate, higher = longer survival",92 % of control
same,T/C,"endpoint: median survival time, dose: 1.5 mg/kg/injection, schedule: Q01DX011 (ip), vehicle: sodium bicarbonate, higher = longer survival",100 % of control
same,T/C,"endpoint: median survival time, dose: 2.5 mg/kg/injection, schedule: Q01DX011 (ip), vehicle: other, higher = longer survival",105 % of control
same,T/C,"endpoint: median survival time, dose: 3.12 mg/kg/injection, schedule: Q01DX011 (ip), vehicle: sodium bicarbonate, higher = longer survival",101 % of control
same,T/C,"endpoint: median tumor weight (est.), dose: 0.19 mg/kg/injection, schedule: Q01DX011 (ip), vehicle: sodium bicarbonate, higher = larger tumour",96 % of control
same,T/C,"endpoint: median tumor weight (est.), dose: 0.38 mg/kg/injection, schedule: Q01DX011 (ip), vehicle: sodium bicarbonate, higher = larger tumour",85 % of control
same,T/C,"endpoint: median tumor weight (est.), dose: 0.75 mg/kg/injection, schedule: Q01DX011 (ip), vehicle: sodium bicarbonate, higher = larger tumour",101 % of control
same,T/C,"endpoint: median tumor weight (est.), dose: 1.5 mg/kg/injection, schedule: Q01DX011 (ip), vehicle: sodium bicarbonate, higher = larger tumour",108 % of control
same,T/C,"endpoint: median tumor weight (est.), dose: 3.12 mg/kg/injection, schedule: Q01DX011 (ip), vehicle: sodium bicarbonate, higher = larger tumour",81 % of control
CCCCCCCCCCCCCCCCCC[n+]1cccc(C(=O)N2CCOCC2)c1,T/C,"endpoint: mean tumor weight (est.), dose: 2.0 mg/kg/injection, schedule: Q01DX011 (ip), vehicle: saline, higher = larger tumour",82 % of control
same,T/C,"endpoint: mean tumor weight (est.), dose: 4.0 mg/kg/injection, schedule: Q01DX011 (ip), vehicle: saline, higher = larger tumour",83 % of control
same,T/C,"endpoint: mean tumor weight (est.), dose: 8.0 mg/kg/injection, schedule: Q01DX011 (ip), vehicle: saline, higher = larger tumour",71 % of control
same,T/C,"endpoint: mean tumor weight (est.), dose: 16.0 mg/kg/injection, schedule: Q01DX011 (ip), vehicle: saline, higher = larger tumour",64 % of control
same,T/C,"endpoint: median survival time, dose: 2.0 mg/kg/injection, schedule: Q01DX011 (ip), vehicle: saline, higher = longer survival",101 % of control
same,T/C,"endpoint: median survival time, dose: 4.0 mg/kg/injection, schedule: Q01DX011 (ip), vehicle: saline, higher = longer survival",103 % of control
same,T/C,"endpoint: median survival time, dose: 8.0 mg/kg/injection, schedule: Q01DX011 (ip), vehicle: saline, higher = longer survival",105 % of control
same,T/C,"endpoint: median survival time, dose: 16.0 mg/kg/injection, schedule: Q01DX011 (ip), vehicle: saline, higher = longer survival",94 % of control
